In the supplement of paper PMC8149375:

Experiments:
Details in all cases: treatment: drug alone; 5 days
UO-31 [1] = experiment: GI50, drug alone; higher = less potent
Experimental: (§1)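 Primary HTS: 8 RCC cell lines treated with 8 doses (up to 10 uM) of each library drug alone for 5 days; viability read by CellTiter-Glo and normalised to DMSO. GI50 was fitted with XLfit (4-parameter), AUC is the area under the dose-response curve, and minimum viability is the lowest fraction of DMSO viability across doses.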

786-O [2] = experiment: GI50, drug alone; higher = less potent
Experimental: as §1

A498 [3] = experiment: GI50, drug alone; higher = less potent
Experimental: as §1

ACHN [4] = experiment: GI50, drug alone; higher = less potent
Experimental: as §1

CAKI-1 [5] = experiment: GI50, drug alone; higher = less potent
Experimental: as §1

SN12C [6] = experiment: GI50, drug alone; higher = less potent
Experimental: as §1

769-P [7] = experiment: GI50, drug alone; higher = less potent
Experimental: as §1

TK-10 [8] = experiment: GI50, drug alone; higher = less potent
Experimental: as §1

UO-31 [9] = experiment: AUC of dose-response viability curve, drug alone (arbitrary (AUC of normalised viability)); higher = less growth inhibition
Experimental: as §1

786-O [10] = experiment: as above
Experimental: as §1

A498 [11] = experiment: as above
Experimental: as §1

ACHN [12] = experiment: as above
Experimental: as §1

CAKI-1 [13] = experiment: as above
Experimental: as §1

SN12C [14] = experiment: as above
Experimental: as §1

769-P [15] = experiment: as above
Experimental: as §1

TK-10 [16] = experiment: as above
Experimental: as §1

UO-31 [17] = experiment: minimum viability across doses, drug alone, relative to DMSO (fraction); higher = less growth inhibition
Experimental: as §1

786-O [18] = experiment: as above
Experimental: as §1

A498 [19] = experiment: as above
Experimental: as §1

ACHN [20] = experiment: as above
Experimental: as §1

CAKI-1 [21] = experiment: as above
Experimental: as §1

SN12C [22] = experiment: as above
Experimental: as §1

769-P [23] = experiment: as above
Experimental: as §1

TK-10 [24] = experiment: as above
Experimental: as §1

SMILES	GI50, drug alone (UO-31 [1])	GI50, drug alone (786-O [2])	GI50, drug alone (A498 [3])	GI50, drug alone (ACHN [4])	GI50, drug alone (CAKI-1 [5])	GI50, drug alone (SN12C [6])	GI50, drug alone (769-P [7])	GI50, drug alone (TK-10 [8])	AUC of dose-response viability curve (UO-31 [9])	AUC of dose-response viability curve (786-O [10])	AUC of dose-response viability curve (A498 [11])	AUC of dose-response viability curve (ACHN [12])	AUC of dose-response viability curve (CAKI-1 [13])	AUC of dose-response viability curve (SN12C [14])	AUC of dose-response viability curve (769-P [15])	AUC of dose-response viability curve (TK-10 [16])	minimum viability across doses (UO-31 [17])	minimum viability across doses (786-O [18])	minimum viability across doses (A498 [19])	minimum viability across doses (ACHN [20])	minimum viability across doses (CAKI-1 [21])	minimum viability across doses (SN12C [22])	minimum viability across doses (769-P [23])	minimum viability across doses (TK-10 [24])
Cc1cn(-c2cc(NC(=O)c3ccc(C)c(Nc4nccc(-c5cccnc5)n4)c3)cc(C(F)(F)F)c2)cn1 [Nilotinib (AMN-107)]	> 10000 nM	> 10000 nM	> 10000 nM	> 10000 nM	> 10000 nM	> 10000 nM	> 10000 nM	> 10000 nM	4.08	3.8	4.05	3.32	3.76	3.37	3.46	2.96	0.654	0.827	0.788	0.797	0.763	0.877	0.93	0.56
COc1ccc(C2=NC(c3ccc(Cl)cc3)C(c3ccc(Cl)cc3)N2C(=O)N2CCNC(=O)C2)c(OC(C)C)c1 (stereo unspecified) [Nutlin-3]	> 10000 nM	> 10000 nM	> 10000 nM	5640 nM	8040 nM	> 10000 nM	> 10000 nM	> 10000 nM	4.29	3.29	3.9	2.82	3.34	3.31	3.42	2.99	0.99	0.756	0.914	0.278	0.383	0.846	0.677	0.805
COc1cccc2cc(-c3nc([C@H]4CC[C@H](C(=O)O)CC4)n4ncnc(N)c34)[nH]c12 [OSI-027]	2520 nM	1660 nM	9270 nM	1910 nM	1170 nM	2390 nM	8490 nM	1930 nM	3.1	2.49	3.75	2.85	2.58	2.77	3.12	2.64	0.00484	0.185	0.148	0.105	0.0475	0.168	0.408	0.191
C#Cc1cccc(Nc2ncnc3cc(OCCOC)c(OCCO)cc23)c1.Cl [OSI-420 (Desmethyl Erlotinib)]	> 10000 nM	101 nM	> 10000 nM	827 nM	3010 nM	> 10000 nM	3590 nM	2420 nM	3.38	2.49	3.79	2.38	2.79	2.95	2.69	2.29	0.906	0.443	0.92	0.101	0.159	0.6	0.36	0.416
O=C(Nc1ccc(OC(F)(F)F)cc1)c1sccc1NCc1ccnc2ccccc12 [OSI-930]	1350 nM	7470 nM	> 10000 nM	5420 nM	8110 nM	8320 nM	> 10000 nM	> 10000 nM	3.46	2.81	3.58	3.25	3.63	3.5	3.39	3.23	0.173	0.372	0.722	0.175	0.264	0.158	0.871	0.572
COC1=CC(c2cc3ccccc3[nH]2)=N/C1=C\c1[nH]c(C)cc1C.CS(=O)(=O)O [Obatoclax mesylate (GX15-070)]	158 nM	7.53 nM	438 nM	81.1 nM	379 nM	213 nM	309 nM	185 nM	2.07	0.668	1.95	1.41	2.23	1.74	2.01	1.79	0.00526	0.0051	0.00496	0.0118	0.011	0.00313	0.0323	0.17
C=CCc1cccc(/C=N/NC(=O)CN2CCN(Cc3ccccc3)CC2)c1O [PAC-1]	1700 nM	610 nM	8780 nM	740 nM	3230 nM	3350 nM	2320 nM	1620 nM	3.29	2.18	3.43	2.23	3.2	3.01	2.94	2.69	0.0166	0.00713	0.368	0.0162	0.117	0.138	0.0295	0.0835
CCCCCCCCCCCCc1ccc(S(=O)(=O)Nc2nncs2)cc1 [PHT-427]	> 10000 nM	> 10000 nM	> 10000 nM	> 10000 nM	> 10000 nM	> 10000 nM	> 10000 nM	> 10000 nM	4.78	2.32	4.29	3.08	3.62	3.22	3.26	2.94	1.14	0.512	1.05	0.824	0.959	0.858	0.855	0.797
Oc1cccc(-c2nc(N3CCOCC3)c3oc4ncccc4c3n2)c1 [PI-103]	339 nM	355 nM	584 nM	286 nM	858 nM	360 nM	1360 nM	527 nM	1.8	2	2.26	2.08	2.37	1.91	2.53	2.15	0.0085	0.00638	0.0881	0.119	0.0544	0.118	0.0599	0.136
Cc1ccc([N+](=O)[O-])cc1S(=O)(=O)N(C)/N=C/c1cnc2ccc(Br)cn12.Cl [PIK-75]	84 nM	40.2 nM	82.1 nM	30.1 nM	25.8 nM	70 nM	117 nM	70.5 nM	1.71	1.09	1.5	1.01	0.988	1.33	1.61	1.56	0.00672	0.00345	0.0119	0.00398	0.0354	0.00713	0.0087	0.121
COc1ccc2c(c1OC)N=C(NC(=O)c1cccnc1)N1CCN=C21 [PIK-90]	> 10000 nM	> 10000 nM	> 10000 nM	> 10000 nM	3060 nM	3410 nM	> 10000 nM	> 10000 nM	3.42	2.46	3.98	3.1	2.42	2.7	3.07	2.75	0.822	0.53	1.02	0.655	0.358	0.175	0.693	0.616
CC(=O)Nc1nc(C)c(-c2ccc(Cl)c(S(=O)(=O)NCCO)c2)s1 [PIK-93]	> 10000 nM	746 nM	> 10000 nM	7460 nM	5070 nM	8030 nM	> 10000 nM	8010 nM	4.68	1.86	4.19	3.14	3.11	2.98	3.19	2.74	1.15	0.202	0.8	0.408	0.287	0.434	0.565	0.377
Cc1ccccc1-n1c(Cn2ncc3c(N)ncnc32)nc2cccc(C)c2c1=O [PIK-293]	> 10000 nM	> 10000 nM	> 10000 nM	> 10000 nM	> 10000 nM	> 10000 nM	> 10000 nM	> 10000 nM	4.72	2.42	3.9	3.53	3.46	3.16	3.49	3.07	1.2	0.581	0.982	0.928	0.902	0.837	0.949	0.734
CCn1nnc2c(N3CCOCC3)nc(-c3ccc(NC(=O)Nc4ccc(C(=O)N5CCN(C)CC5)cc4)cc3)nc21 [PKI-402]	162 nM	117 nM	165 nM	224 nM	241 nM	99.1 nM	1140 nM	179 nM	1.99	1.66	2.25	1.89	1.91	1.66	2.51	1.71	0.0165	0.00561	0.156	0.0633	0.0473	0.118	0.102	0.0487
CCCS(=O)(=O)Nc1ccc(F)c(C(=O)c2c[nH]c3ncc(Cl)cc23)c1F [PLX-4720]	> 10000 nM	4860 nM	> 10000 nM	2460 nM	7550 nM	> 10000 nM	> 10000 nM	> 10000 nM	4.19	2.5	4.12	2.57	3.33	3.44	3.18	3.13	0.944	0.335	0.885	0.197	0.278	0.875	0.817	0.574
CC(C)n1nc(-c2cc3cc(O)ccc3[nH]2)c2c(N)ncnc21 [PP242]	4100 nM	1300 nM	2910 nM	348 nM	523 nM	677 nM	1550 nM	522 nM	3.42	2.02	2.93	2.07	2.12	2.23	2.56	2.12	0.00829	0.00205	0.0519	0.05	0.0389	0.0949	0.0576	0.0788
Nc1ncnc2c1c(-c1cnc3[nH]ccc3c1)nn2C1CCCC1 [PP-121]	1530 nM	429 nM	2730 nM	455 nM	583 nM	1040 nM	1350 nM	415 nM	3.41	2.13	3.11	2.23	2.37	2.54	2.53	2.1	0.0162	0.00427	0.0928	0.0162	0.00982	0.0559	0.0337	0.0113
COc1ccc(COc2cc3oc(=O)c4cc(C(C)O)ccc4c3cc2OC)cc1 (stereo unspecified) [Palomid 529]	> 10000 nM	5750 nM	> 10000 nM	> 10000 nM	> 10000 nM	> 10000 nM	> 10000 nM	> 10000 nM	5.25	2.56	4.44	3.5	3.57	3.3	3.39	2.69	1.2	0.251	1.12	0.893	0.668	0.844	0.854	0.633
Cc1ccc(Nc2nccc(N(C)c3ccc4c(C)n(C)nc4c3)n2)cc1S(N)(=O)=O.Cl [Pazopanib HCl]	> 10000 nM	< 3 nM	> 10000 nM	5260 nM	6830 nM	5960 nM	> 10000 nM	> 10000 nM	4.39	2.85	3.57	3.21	3.09	3.1	3.18	3.14	0.63	0.427	0.514	0.224	0.0579	0.193	0.207	0.661
